From US20240409662A1, “ANTIBODY MASKS AND USES THEREOF” (Vibrant Pharma Limited, priority 2021, published 2024)
“Also recorded” adds a separate entry of the source. No end group written: not given here.

B1: L4-G3A (bispecific antibody)
heavy: QDANEEGSGSPLGLGSGSEVKLLESGGGLVQPKGSLKLSCAASGFTFNTYAMNWVRQAPGKGLEWVARIRSKYNNYATYYADSVKDRFTISRDDSQSILYLQMNNLKTEDTAMYYCVRHGNFGNSYVSWFAYWGQGTLVTVSS
light: QAVVTQESALTTSPGETVTLTCRSSTGAVTTSNYANWVQEKPDHLFTGLIGGTNKRAPGVPARFSGSLIGDKAALTITGAQTEDEAIYFCALWYSNLWVFGGGTKVEIK
chain: EVQLVESGGGFVQAGESLTLSCTSSTLTFTPYRMAWYRQAPGKQRDLVADISSGDGRTTNYADFAKGRFTISRDNIKNTVFLRMTNLKPEDTAVYYCNTFVSFVGIARSWGQGTQVTVSSESKYGPPCPPCPAPEAAGGPSVFLFPPKPKDTLMISRTPEVTCVVVDVSQEDPEVQFNWYVDGVEVHNAKTKPREEQFNSTYRVVSVLTVLHQDWLNGKEYKCKVSNKGLPSSIEKTISKAKGQPREPQVCTLPPSQEEMTKNQVSLSCAVKGFYPSDIAVEWESNGQPENNYKTTPPVLDSDGSFFLVSRLTVDKSRWQEGNVFSCSVMHEALHNRFTQKSLSLSL
B2: MMP9-digested L4-D2E (bispecific antibody, not shown: small tags and cut ends)
heavy: EVKLLESGGGLVQPKGSLKLSCAASGFTFNTYAMNWVRQAPGKGLEWVARIRSKYNNYATYYADSVKDRFTISRDDSQSILYLQMNNLKTEDTAMYYCVRHGNFGNSYVSWFAYWGQGTLVTVSS
light: B1 light
chain: B1 chain
B3: MMP9-digested L5-D2E (bispecific antibody, not shown: small tags and cut ends)
heavy: B2 heavy
light: B1 light
chain: B1 chain
B4: L6-D2E (bispecific antibody)
heavy: QEGNEESSGGGSPLGLSSGGGSEVKLLESGGGLVQPKGSLKLSCAASGFTFNTYAMNWVRQAPGKGLEWVARIRSKYNNYATYYADSVKDRFTISRDDSQSILYLQMNNLKTEDTAMYYCVRHGNFGNSYVSWFAYWGQGTLVTVSS
light: B1 light
chain: B1 chain
B5: L7-D2G (bispecific antibody)
heavy: QGGNEESSGGSGSPLGLSSGGSGSEVKLLESGGGLVQPKGSLKLSCAASGFTFNTYAMNWVRQAPGKGLEWVARIRSKYNNYATYYADSVKDRFTISRDDSQSILYLQMNNLKTEDTAMYYCVRHGNFGNSYVSWFAYWGQGTLVTVSS
light: B1 light
chain: B1 chain
B6: L5-D2E (bispecific antibody)
heavy: QEGNEESSGGSPLGLSSGGSEVKLLESGGGLVQPKGSLKLSCAASGFTFNTYAMNWVRQAPGKGLEWVARIRSKYNNYATYYADSVKDRFTISRDDSQSILYLQMNNLKTEDTAMYYCVRHGNFGNSYVSWFAYWGQGTLVTVSS
light: B1 light
chain: B1 chain

target: SP34; assay: BLI affinity of biotinylated N-terminal CD3ε peptides (on SA biosensor) to SP34 as analyte; type: binding; conditions: peptide immobilized
Text: Bio-Layer Interferometry (BLI) technique was employed for the measurement of protein-protein interactions in this study. A Octet Red96 system and Streptavidin (SA) or AHC biosensors (ForteBio, Fremont) were utilized.
To measure the binding of SP34 to CD3ε peptides, the peptides were immobilized on the SA biosensor through SA-biotin interaction according the manufacturer's instruction. After running PBS with 0.01% Tween-20 buffer to stabilize baselines, the biosensors were dipped into solid black 96-well plates (Greiner Bio-One, Cat. #65520, Monroe, North Carolina, USA) containing SP34 in indicated concentrations. Association and dissociation were measured accordingly, and binding kinetics were calculated using ForteBio's Data Analysis 12.0 software.
BLI technology was employed to measure the affinity of the six peptides to SP34 with a ForteBio Red96. These peptides were immobilized on the SA Biosensor and their affinities were measured using SP34 as the analyte. The binding sensorgrams indicate that SP34 binds to all six peptides with very similar profiles (FIG. 1C). The affinities of the bindings were determined as between 1-4 nM (Table 1), very similar to that of CD3δε/SP34 binding. […] It is further hypothesized that a N-terminal CD3ε peptide […] can bind to SP34 as well.

“CD3ε-p7: N-terminal human CD3ε peptide with C-terminal GGGGS linker, biotinylated (QDGNEEMGGITQTPYKVSISGTTGGGGS; not fully specified (C-terminus); also: biotinylated, site not given here)” and “CD3ε-p5: N-terminal human CD3ε peptide with C-terminal GGGGS linker, biotinylated (QDGNEEMGGITQTPYKVGGGGS; not fully specified (C-terminus); also: biotinylated)” are within 1.5-fold of each other in Kd: 1.3 nM for the first, 1.8 nM for the second.

“CD3ε-p6: N-terminal human CD3ε peptide with C-terminal GGGGS linker, biotinylated (QDGNEEMGGITQTPYKVSISGGGGS; not fully specified (C-terminus); also: biotinylated)” and “CD3ε-p2: N-terminal human CD3ε peptide with C-terminal GGGGS linker, biotinylated (QDGNEEMGGGGGS; not fully specified (C-terminus); also: biotinylated)” are within 1.5-fold of each other in Kd: 3.5 nM for the first, 3.6 nM for the second.

“CD3ε-p3: N-terminal human CD3ε peptide with C-terminal GGGGS linker, biotinylated (QDGNEEMGGITGGGGS; not fully specified (C-terminus); also: biotinylated)” gave a Kd of 2 nM.

Going from “CD3ε-p7: N-terminal human CD3ε peptide with C-terminal GGGGS linker, biotinylated (QDGNEEMGGITQTPYKVSISGTTGGGGS; not fully specified (C-terminus); also: biotinylated, site not given here)” to “CD3ε-p5: N-terminal human CD3ε peptide with C-terminal GGGGS linker, biotinylated (QDGNEEMGGITQTPYKVGGGGS; not fully specified (C-terminus); also: biotinylated)”, the ka falls from 100000 M⁻¹ s⁻¹ to 54000 M⁻¹ s⁻¹ (1.9-fold).

“CD3ε-p6: N-terminal human CD3ε peptide with C-terminal GGGGS linker, biotinylated (QDGNEEMGGITQTPYKVSISGGGGS; not fully specified (C-terminus); also: biotinylated)” and “CD3ε-p2: N-terminal human CD3ε peptide with C-terminal GGGGS linker, biotinylated (QDGNEEMGGGGGS; not fully specified (C-terminus); also: biotinylated)” are within 1.5-fold of each other in ka: 46000 M⁻¹ s⁻¹ for the first, 65000 M⁻¹ s⁻¹ for the second.

With “CD3ε-p3: N-terminal human CD3ε peptide with C-terminal GGGGS linker, biotinylated (QDGNEEMGGITGGGGS; not fully specified (C-terminus); also: biotinylated)” the ka was 56000 M⁻¹ s⁻¹.

“CD3ε-p7: N-terminal human CD3ε peptide with C-terminal GGGGS linker, biotinylated (QDGNEEMGGITQTPYKVSISGTTGGGGS; not fully specified (C-terminus); also: biotinylated, site not given here)” and “CD3ε-p5: N-terminal human CD3ε peptide with C-terminal GGGGS linker, biotinylated (QDGNEEMGGITQTPYKVGGGGS; not fully specified (C-terminus); also: biotinylated)” are within 1.5-fold of each other in kd: 0.00013 s⁻¹ for the first, 9.8e-05 s⁻¹ for the second.

First: CD3ε-p6: N-terminal human CD3ε peptide with C-terminal GGGGS linker, biotinylated (QDGNEEMGGITQTPYKVSISGGGGS; not fully specified (C-terminus); also: biotinylated)
Second: CD3ε-p2: N-terminal human CD3ε peptide with C-terminal GGGGS linker, biotinylated (QDGNEEMGGGGGS; not fully specified (C-terminus); also: biotinylated)
The kd of the first is 1.5-fold lower: 0.00016 s⁻¹ for the first, 0.00024 s⁻¹ for the second.

“CD3ε-p3: N-terminal human CD3ε peptide with C-terminal GGGGS linker, biotinylated (QDGNEEMGGITGGGGS; not fully specified (C-terminus); also: biotinylated)” was tested, and the kd was 0.00011 s⁻¹.

target: CD3 on human PBMC (human, UniProt P07766 23-207); assay: cell-based or functional assay; conditions: not given
Sequence (P07766 23-207): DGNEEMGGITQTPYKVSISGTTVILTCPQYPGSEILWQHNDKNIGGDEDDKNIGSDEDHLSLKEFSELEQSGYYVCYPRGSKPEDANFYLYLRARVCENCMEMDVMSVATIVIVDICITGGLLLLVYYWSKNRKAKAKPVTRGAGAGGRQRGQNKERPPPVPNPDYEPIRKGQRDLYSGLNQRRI

Going from B1 to B4, the “Digested vs. masked (ratio of killing EC50)” value falls from 144 fold to 32 fold.

Compared with B5, B6 is higher in “Digested vs. masked (ratio of killing EC50)” value: 9 fold for the first, 32 fold for the second.

Compared with B1, B2 is 160-fold lower in “EC50 of M-TCE-induced killing of HT29 cells in the presence of human PBMC” value (shortened to “EC50 of M-TCE-induced killing … of human PBMC”): 1.72 nM for the first, 0.011 nM for the second.

First: B3
Second: B4
The “EC50 of M-TCE-induced killing … of human PBMC” value of the first is 24-fold lower: 0.013 nM for the first, 0.317 nM for the second.

First: B5
Second: B6
The “EC50 of M-TCE-induced killing … of human PBMC” value of the first is 4.4-fold lower: 0.096 nM for the first, 0.418 nM for the second.

tested on: SP34; assay: ELISA of SP34 binding to coated CD3ε1-27-Fc fusion proteins; conditions: FIG. 2A
Method: Examination of binding of SP34 to CD3ε1-27-Fc fusion proteins was conducted by ELISA. 100 μL of 2 μg/mL fusion protein was coated on 96 well microtiter plate (Nunc) at room temperature (RT) overnight. After blocking the wells with 3% milk-PBS (3% non-fat milk in 137 mM NaCl, 2.7 mM KCl, 10 mM Na2HPO4 1.8 mM KH2PO4) at RT for 1 hr and 6 washes with 0.05% PBST (0.05% Tween-20 in PBS), SP34 (5 μg/mL, 50 μL/well) was added to the wells as the first antibody and allowed for incubation at 37° C. for 1 hr. The wells were washed for 6 times with PBST after the incubation, and the second antibody horseradish peroxidase (HRP) labeled anti-Kappa light chain (Sigma, 1:6,000 dilution, 50 μL/well) was added and allowed for incubation at RT for 50 min. After 6 washes with PBST, 3,3′, 5,5′-Tetramethylbenzidine (TMB) was added to develop color, and 1M HCl was then added to stop the reaction. ELISA titer was read with a microtiter plate reader (Thermo Fisher) at 450 nm wavelength.

For “D2C: D2C mutant of the CD3ε1-27-Fc fusion protein”, the “binding of SP34 to fusion protein” value was “significant binding; also recorded: maintained binding”.
For “D2G: D2G mutant of the CD3ε1-27-Fc fusion protein”, the “binding of SP34 to fusion protein” value was “significant binding; also recorded: maintained binding”.
In the case of “G3A: G3A mutant of the CD3ε1-27-Fc fusion protein”, the “binding of SP34 to fusion protein” value is reported as “significant binding; also recorded: maintained binding”.
With “D2N: D2N mutant of the CD3ε1-27-Fc fusion protein” the “binding of SP34 to fusion protein” value was “significant binding; also recorded: maintained binding”.
In the case of “D2E: D2E mutant of the CD3ε1-27-Fc fusion protein”, the “binding of SP34 to fusion protein” value is reported as “significant binding; also recorded: maintained binding”.
